This is an account of results in patent publication US11518760B2 (Liverpool School of Tropical Medicine, priority 2017, dated 2022).

A value given as a limit tells only on which side of the number the result lay.

In the test the test system is C6/36 Aedes albopictus cell line infected with Wolbachia pipientis (Wolbachia strain wAlbB). Briefly: In vitro insect cell line assay (anti-Wolbachia screen, SYTO 11 high content imaging). It is filed as cell-based. To be noted: 168 h; C6/36 Aedes albopictus cells infected with Wolbachia pipientis wAlbB, 7 days incubation, SYTO 11 imaging; read-out: In vitro anti-Wolbachia activity. The procedure, abridged:
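Wolbachia wAlbB-infected C6/36 Aedes albopictus cells were exposed to compounds at a final 5 μM for 7 days at 26 °C, with DMSO-medium wells as untreated controls. Cells were then stained with SYTO 11 for 15 min, imaged by high-content microscopy and scored by texture analysis.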
Consider `CC1CN(c2nc(NCc3cccnc3C(F)(F)F)c3cccnc3n2)C[C@H](C)O1` (stereo partly drawn) [Example 254, 2-((6S)-2,6-dimethylmorpholino)-N-((2-(trifluoromethyl)pyridin-3-yl)methyl)pyrido[2,3-d]pyrimidin-4-amine], for which the EC50 lay within 0.01 to 1 nM.
For `CC(Nc1ncnc2cc(-c3ccccc3)sc12)c1ccccc1C(F)(F)F` (stereo not shown) [Example 98, 6-phenyl-N-(1-(2-(trifluoromethyl)phenyl)ethyl)thieno[3,2-d]pyrimidin-4-amine], the EC50 was 1000 to 100000 nM.
In the case of `CC(C)Nc1nc(NCc2ccc(S(C)(=O)=O)cc2)c2ncccc2n1` [Example 123, N^2-isopropyl-N^4-(4-(methylsulfonyl)benzyl)pyrido[3,2-d]pyrimidine-2,4-diamine], the EC50 fell in the range of 1000 to 100000 nM.
Turning to `FC1CCN(c2nc(NCc3cccnc3C(F)(F)F)c3cccnc3n2)C1` (stereo not shown) [Example 242, 2-(3-fluoropyrrolidin-1-yl)-N-((2-(trifluoromethyl)pyridin-3-yl)methyl)pyrido[2,3-a]pyrimidin-4-amine], the EC50 fell in the range of 1 to 10 nM.
Regarding `NC(=O)c1nc(NCc2ccccc2C(F)(F)F)c2sccc2n1` [Example 155, 4-((2-(trifluoromethyl)benzyl)amino)thieno[3,2-d]pyrimidine-2-carboxamide], the EC50 lay within 1000 to 100000 nM.
As for `CC(C)N(C)c1nc(N(C)Cc2cccnc2C(F)(F)F)c2cccnc2n1` [Example 161, N^2-isopropyl-N^2,N^4-dimethyl-N^4-((2-(trifluoromethyl)pyridin-3-yl)methyl)pyrido[2,3-d]pyrimidine-2,4-diamine], the EC50 was 1 to 10 nM.
Take `CC1CN(c2nc(NCc3ccccc3C(F)(F)F)c3cccnc3n2)C[C@H](C)O1` (stereo partly drawn) [Example 268, 2-((6S)-2,6-dimethylmorpholino)-N-(2-(trifluoromethyl)benzyl)pyrido[2,3-d]pyrimidin-4-amine]: the EC50 is 10 to 100 nM.
As for `CC1COCCN1Cc1nc(NCc2ccccc2C(F)(F)F)c2cccnc2n1` (stereo not shown) [Example 224], the EC50 is 1000 to 100000 nM.
For the compound `COc1cnc2nc(N3CCOCC3C)nc(NCc3cccnc3C(F)(F)F)c2c1` (stereo not shown) [Example 304], the EC50 is 1000 to 100000 nM.
For `FC(F)(F)c1ncccc1CNc1nc(N2CCCC2)nc2ncccc12` [Example 174, 2-(pyrrolidin-1-yl)-N-((2-(trifluoromethyl)pyridin-3-yl)methyl)pyrido[2,3-d]pyrimidin-4-amine], the EC50 fell in the range of 0.01 to 1 nM.
Take `CC(C)Nc1nc(NCc2ccc(C(F)(F)F)nc2)c2cccnc2n1` [Example 130, N^2-isopropyl-N^4-((6-(trifluoromethyl)pyridin-3-yl)methyl)pyrido[2,3-d]pyrimidine-2,4-diamine]: the EC50 lay within 1000 to 100000 nM.
With `CC(C)Nc1nc(NCc2c(F)cccc2Cl)c2sccc2n1` [Example 30, N^4-(2-chloro-6-fluorobenzyl)-N^2-isopropylthieno[3,2-d]pyrimidine-2,4-diamine] the figure was 100 to 1000 nM.
For the compound `CC(C)(O)c1nc(NCc2ccccc2C(F)(F)F)c2sccc2n1` [Example 86], the EC50 lay within 1000 to 100000 nM.
For the compound `FC(F)(F)c1ccccc1CNc1nc(N2CCOCC2)nc2ccsc12` [Example 94, 2-morpholino-N-(2-(trifluoromethyl)benzyl)thieno[3,2-d]pyrimidin-4-amine], the EC50 was in the range of 1000 to 100000 nM.
Turning to `CC(C)Nc1nc(NCc2ccccc2Cl)c2sccc2n1` [Example 17, N^4-(2-chlorobenzyl)-N^2-isopropylthieno[3,2-d]pyrimidine-2,4-diamine], the EC50 is 10 to 100 nM.
For the compound `N#CC1CN(c2nc(NCc3cccnc3C(F)(F)F)c3cccnc3n2)CCO1` (stereo not shown) [Example 257, 4-(4-(((2-(trifluoromethyl)pyridin-3-yl)methyl)amino)pyrido[2,3-d]pyrimidin-2-yl)morpholine-2-carbonitrile], the EC50 was in the range of 10 to 100 nM.
With `COc1nc(N(C)C(C)c2ccccc2C(F)(F)F)c2sccc2n1` (stereo not shown) [Example 68, 2-methoxy-N-methyl-N-(1-(2-(trifluoromethyl)phenyl)ethyl)thieno[3,2-d]pyrimidin-4-amine] the figure was 10 to 100 nM; with `FC(F)(F)c1ncccc1CNc1ncnc2ncc(Br)cc12` [Example 180], 1000 to 100000 nM.
With `FC(F)(F)c1ncccc1CNc1nc(NC2CC2)nc2ncccc12` [Example 159, N^2-cyclopropyl-N^4-((2-(trifluoromethyl)pyridin-3-yl)methyl)pyrido[2,3-d]pyrimidine-2,4-diamine] the figure was 1 to 10 nM; with `CC1COCCN1c1nc(NCc2cccnc2C(F)(F)F)c2cc(F)cnc2n1` (stereo not shown) [Example 303, 6-fluoro-2-(3-methylmorpholino)-N-((2-(trifluoromethyl)pyridin-3-yl)methyl)pyrido[2,3-d]pyrimidin-4-amine], 100 to 1000 nM.
Regarding `FC(F)(F)OCC1CCCN1c1nc(NCc2cccnc2C(F)(F)F)c2cccnc2n1` (stereo not shown) [Example 299, 2-(2-((trifluoromethoxy)methyl)pyrrolidin-1-yl)-N-((2-(trifluoromethyl)pyridin-3-yl)methyl)pyrido[2,3-d]pyrimidin-4-amine], the EC50 is < 0.01 nM.
In the case of `FC1(F)CN(c2nc(NCc3cccnc3C(F)(F)F)c3cccnc3n2)C1` [Example 201, 2-(3,3-difluoroazetidin-1-yl)-N-((2-(trifluoromethyl)pyridin-3-yl)methyl)pyrido[2,3-d]pyrimidin-4-amine], the EC50 is 10 to 100 nM.
On to `CC(C)Nc1nc(N2CCCN2c2ccccc2C(F)(F)F)c2cccnc2n1` [Example 189, N-isopropyl-4-(2-(2-(trifluoromethyl)phenyl)pyrazolidin-1-yl)pyrido[2,3-d]pyrimidin-2-amine], for which the EC50 fell in the range of 1000 to 100000 nM.
With `FC(F)(F)c1nc(NCc2ccccc2C(F)(F)F)c2sccc2n1` [Example 56, 2-(trifluoromethyl)-N-(2-(trifluoromethyl)benzyl)thieno(3,2-d]pyrimidin-4-amine] the figure was 10 to 100 nM; with `FC1(F)CCN(c2nc(NCc3cccnc3C(F)(F)F)c3cccnc3n2)CC1` [Example 197, 2-(4,4-difluoropiperidin-1-yl)-N-((2-(trifluoromethyl)pyridin-3-yl)methyl)pyrido[2,3-d]pyrimidin-4-amine], 1 to 10 nM; with `FC(F)(F)c1ncccc1CNc1ncnc2ncccc12` [Example 170, N-((2-(trifluoromethyl)pyridin-3-yl)methyl)pyrido[2,3-d]pyrimidin-4-amine], 1000 to 100000 nM.
Under `FC1(F)CCN(c2nc(N3CCC3c3cccnc3C(F)(F)F)c3cccnc3n2)C1` (stereo not shown) [Example 220, 2-(3,3-difluoropyrrolidin-1-yl)-4-(2-(2-(trifluoromethyl)pyridin-3-yl)azetidin-1-yl)pyrido[2,3-d]pyrimidine] stands 0.01 to 1 nM; under `FC(F)(F)c1ccccc1C1CCCN1c1ncnc2ccsc12` (stereo not shown) [Example 79], 100 to 1000 nM.
In the case of `CC1COC[C@@H](C)N1c1nc(NCc2ccccc2C(F)(F)F)c2cccnc2n1` (stereo partly drawn) [Example 277, 2-((3R)-3,5-dimethylmorpholino)-N-(2-(trifluoromethyl)benzyl)pyrido[2,3-d]pyrimidin-4-amine], the EC50 is 10 to 100 nM.
For the compound `CN1CCN(CCNc2nc(NCc3ccccc3C(F)(F)F)c3sccc3n2)CC1` [Example 92, N^2-(2-(4-methyipiperazin-1-yl)ethyl)-N^4-(2-(trifluoromethyl)benzyl)thieno[3,2-d]pyrimidine-2,4-diamine], the EC50 is 1000 to 100000 nM.
With `CS(=O)(=O)c1ccccc1CNc1nc(Cl)nc2ccccc12` [Example 113] the figure was 1000 to 100000 nM.
